Assay results: ChEMBL document CHEMBL1127853, “Novel synthesis of cyclic amide-linked analogues of angiotensins II and III” (J Med Chem, 1994)
Where a SMILES comes first, the peptide text is derived from it.

Experiments:
[1] = species on record: Rattus norvegicus; test: Tested for antagonist activity in rat uterus with respect to human angiotensin II as reference; format: functional; settings: read-out: pA2 (converted)
[2] = species on record: Rattus norvegicus; test: Tested for agonist activity in rat uterus with respect to human angiotensin II; format: functional

Row | Structure (SMILES) | Kb [1] [µM] | Agonist activity [2] [%]
1 | CC[C@H](C)[C@@H]1NC(=O)[C@H](Cc2ccc(O)cc2)NC(=O)[C@H](Cc2ccccc2)NC(=O)[C@@H]2CCCN2C(=O)[C@H](Cc2c[nH]cn2)NC1=O (cyclo(FYIHP)) [listing 1 of 2 here] | > 10 | –
2 | CC[C@H](C)[C@@H]1NC(=O)[C@H](Cc2ccc(O)cc2)NC(=O)[C@H](Cc2ccccc2)NC(=O)[C@@H]2CCCN2C(=O)[C@H](Cc2c[nH]cn2)NC1=O (cyclo(FYIHP)) [listing 2 of 2 here] | – | <0.1
